The values below come from article PMC4822888, “Subtype-Selective Small Molecule Inhibitors Reveal a Fundamental Role for Nav1.7 in Nociceptor Electrogenesis, Axonal Conduction and Presynaptic Release” (PLoS ONE, 2016).

What all share (assay): Off target activity panel
One test concerns the target Acetylcholinesterase (Homo sapiens, UniProt P22303). Format: biochemical. To be noted: read-out: Inhibition at test concentration (%).
A further test concerns the target Lyn A kinase (Homo sapiens, UniProt P07948). Format: biochemical.
In the next test the target is Neurokinin NK1 receptor (Homo sapiens, UniProt P25103). Format: binding. The conditions noted are these: read-out: Inhibition at test concentration (%).
Neurokinin NK1 receptor, sequence (P25103 whole entry): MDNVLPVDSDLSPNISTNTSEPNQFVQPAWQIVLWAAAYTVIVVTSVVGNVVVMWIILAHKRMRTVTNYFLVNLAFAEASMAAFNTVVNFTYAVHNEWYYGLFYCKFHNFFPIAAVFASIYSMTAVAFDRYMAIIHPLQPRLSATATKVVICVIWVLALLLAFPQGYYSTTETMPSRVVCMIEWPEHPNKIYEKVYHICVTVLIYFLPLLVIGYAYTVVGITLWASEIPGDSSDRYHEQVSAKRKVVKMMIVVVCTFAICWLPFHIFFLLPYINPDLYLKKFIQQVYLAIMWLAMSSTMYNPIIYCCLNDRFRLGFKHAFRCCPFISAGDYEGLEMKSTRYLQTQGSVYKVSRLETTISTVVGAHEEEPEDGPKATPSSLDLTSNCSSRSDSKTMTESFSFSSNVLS
The target in a further test is Kappa opioid receptor (Homo sapiens, UniProt P41145). It is filed as binding.
Kappa opioid receptor, sequence (P41145 whole entry): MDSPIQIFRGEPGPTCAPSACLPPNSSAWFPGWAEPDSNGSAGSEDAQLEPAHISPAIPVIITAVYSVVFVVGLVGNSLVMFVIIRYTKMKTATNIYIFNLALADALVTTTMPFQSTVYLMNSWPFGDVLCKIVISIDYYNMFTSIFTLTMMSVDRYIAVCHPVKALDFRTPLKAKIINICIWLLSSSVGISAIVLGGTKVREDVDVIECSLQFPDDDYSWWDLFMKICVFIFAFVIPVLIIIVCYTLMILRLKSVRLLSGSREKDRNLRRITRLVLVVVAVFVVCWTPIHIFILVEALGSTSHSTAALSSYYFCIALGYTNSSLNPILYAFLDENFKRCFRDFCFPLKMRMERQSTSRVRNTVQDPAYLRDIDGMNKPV
Where [1] appears, read: 10 µM, read-out: Inhibition at test concentration (%).

Lyn A kinase, sequence (P07948 whole entry): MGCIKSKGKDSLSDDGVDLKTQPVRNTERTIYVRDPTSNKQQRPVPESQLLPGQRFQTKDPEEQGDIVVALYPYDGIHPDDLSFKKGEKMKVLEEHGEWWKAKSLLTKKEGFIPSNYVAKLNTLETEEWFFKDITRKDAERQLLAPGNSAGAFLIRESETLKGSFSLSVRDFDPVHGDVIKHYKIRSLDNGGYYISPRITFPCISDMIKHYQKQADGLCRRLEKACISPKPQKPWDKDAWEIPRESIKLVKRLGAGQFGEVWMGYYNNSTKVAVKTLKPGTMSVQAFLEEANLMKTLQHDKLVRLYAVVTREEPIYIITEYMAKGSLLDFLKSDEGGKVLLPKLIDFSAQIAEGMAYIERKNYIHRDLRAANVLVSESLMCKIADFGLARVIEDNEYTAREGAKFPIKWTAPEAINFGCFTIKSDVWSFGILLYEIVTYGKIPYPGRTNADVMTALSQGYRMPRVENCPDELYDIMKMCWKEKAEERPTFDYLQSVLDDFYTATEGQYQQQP
Acetylcholinesterase, sequence (P22303 32-614): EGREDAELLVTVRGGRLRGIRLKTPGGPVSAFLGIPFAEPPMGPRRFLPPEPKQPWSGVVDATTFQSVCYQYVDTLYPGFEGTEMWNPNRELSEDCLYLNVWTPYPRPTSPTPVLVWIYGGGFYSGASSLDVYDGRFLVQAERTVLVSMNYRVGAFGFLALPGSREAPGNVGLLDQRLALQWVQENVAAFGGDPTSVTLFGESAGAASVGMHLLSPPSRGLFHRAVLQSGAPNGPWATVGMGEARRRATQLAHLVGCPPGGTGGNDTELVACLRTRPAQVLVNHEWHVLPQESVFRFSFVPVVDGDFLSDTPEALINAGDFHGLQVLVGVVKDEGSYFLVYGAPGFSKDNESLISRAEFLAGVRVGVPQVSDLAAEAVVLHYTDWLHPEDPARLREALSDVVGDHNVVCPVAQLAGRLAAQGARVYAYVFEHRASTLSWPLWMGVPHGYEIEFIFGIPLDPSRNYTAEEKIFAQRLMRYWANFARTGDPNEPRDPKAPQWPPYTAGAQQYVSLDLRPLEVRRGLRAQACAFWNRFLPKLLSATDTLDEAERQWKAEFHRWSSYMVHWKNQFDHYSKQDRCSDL

Consider `Nc1[nH]ncc1-c1cc(Cl)ccc1Oc1cc(F)c(S(=O)(=O)Nc2cscn2)cc1Cl` [PF-05089771, 4-[2-(5-amino-1H-pyrazol-4-yl)-4-chlorophenoxy]-5-chloro-2-fluoro-N-(1,3-thiazol-4-yl)benzenesulfonamide], for which the inhibition at 10 µM at Acetylcholinesterase came out at 17%; on Lyn A kinase (setting [1]), 51%; at Neurokinin NK1 receptor, 5%; on Kappa opioid receptor (setting [1]), 86%. In addition, the inhibition constant Ki at Lyn A kinase (Lyn A kinase) was 7.3 µM; at Kappa opioid receptor (Kappa opioid receptor), 0.39 µM.
